The values below come from publication PMC6778101 (Nature Communications, 2019).

Read-outs that look alike come from different tables or passages of the source. Ends that are not written are not given here.

One test deals with E. coli K-12 BW25113. In words: microbe, parasite or virus in culture. In kind it is cell-based, Escherichia coli. The source says:
Unless otherwise indicated, Minimal Salt (MS) medium was used in all experiments, including the laboratory evolution experiments. In line with previous, methodologically relevant laboratory evolution studies, the physical conditions (including the medium) were the same during the course of laboratory evolution and all forthcoming assays on the resulting resistant lines (e.g. MIC measurements). We previously optimized this medium for studying AMPs (1 g L^−1 (NH4)2SO4, 3 g L^−1 KH2PO4 and 7 g L^−1 K2HPO4 supplemented with 0.1 mM MgSO4, 0.54 µg mL^−1 FeCl3, 1 µg mL^−1 thiamine hydrochloride, 0.2% Casamino acids and 0.2% glucose)[19]. This medium is highly controlled and provides a reproducible environment for experimental evolution experiments. All components were obtained from Sigma-Aldrich.
MICs were determined using a standard serial broth dilution technique. Briefly, 11-step serial dilutions were prepared in 96-well microtiter plates with three replicates per strain and antimicrobial compound. Each experiment was repeated at least twice. 5 × 10^5 cells/mL were inoculated into each well, and the plates were incubated at 30 °C in case of E. coli K-12 BW25113, and its antibiotic and AMP-adapted lines, or 37 °C in case of the other bacterial species. […] Cell growth was monitored by measuring the optical density (OD600 value, Biotek Synergy 2 microplate reader was used for this purpose). […] Relative MIC was calculated as follows: MICrelative = MICevolved/MICcontrol.

Test [1] relates to E. coli K-12 BW25113 carrying ASKA plasmids. In words: microbe, parasite or virus in culture. The format is cell-based, Escherichia coli. As to conditions: MS medium + 10 µg mL−1 CHL + 500 µM IPTG, 5 × 10^5 cells, 16–18 h, 37 °C; for MIC: Escherichia coli. An excerpt: Bacterial gene amplification generates extensive genetic variation that can provide drug resistance[37],[38]. As gene amplification events tend to be genetically unstable and reduce bacterial fitness, they are transient in nature. Using the ASKA library, which comprises each E. coli ORF cloned into an expression vector[40], we have conducted a global survey to evaluate whether artificially amplified genes provide resistance to any of the 14 AMPs and 11 antibiotics tested. As chloramphenicol (CHL) was used as a selection marker for the ASKA plasmid, this antibiotic was not tested in this screen. E. coli K-12 BW25113 cells were transformed with the pooled plasmids of the ASKA library, and the genetically mixed populations were exposed to increasing levels of AMP or antibiotic stresses, respectively. In all cases, the employed AMP or antibiotic dosages were above the MIC of the wild type. For each drug, we identified the MIC provided in the pooled ASKA plasmid library, and compared it to the MIC of the wild-type strain carrying the empty ASKA plasmid.
The ASKA library (a complete set of E. coli K-12 ORF archive) includes every E. coli ORF cloned into an expression vector (pCA24N)[65]. Prior to screening, the ASKA plasmid collection was pooled and transformed into E. coli K-12 BW25113 strain[66]. The plasmid pool was created by pooling an equal aliquot of cells, each carrying different members of the ASKA library, followed by plasmid miniprep. Next, the plasmid pool was electroporated into E. coli K-12 BW25113 competent cells. […] For the MICs measurements 500 000 cells were inoculated in each well which represents ~100 times coverage of each library member. […] Prior to the measurements the cell population containing the pooled overexpression library or the control strain containing the empty vector were grown in three replicates in LB medium supplemented with 20 µg/mL CHL. As the culture reached high density (i.e., OD600 > 0.8), expression of the plasmid was induced by 50 µM IPTG for 1 h. Following induction, 5 × 10^5 bacterial cells were inoculated in three replicates into each well of the 96-well plate and incubated for 16–18 h at 37 °C. Following incubation the MIC values were determined by measuring optical densities in a plate reader (Biotek Synergy).

Setting [2] is: Escherichia coli, BW25113, 24 h, read-out: MIC.
[3] abbreviates: BW25113, Replicate 1, read-out: MIC value of E. coli K-12 BW25113 carrying the empty plasmid of the ASKA library.
Where [4] appears, read: BW25113, Replicate 1, read-out: MIC value of E. coli K-12 BW25113 carrying the pooled plasmids of the ASKA library.
The mark [5] stands for this setting: BW25113, Replicate 2, read-out: MIC value of E. coli K-12 BW25113 carrying the empty plasmid of the ASKA library.
Setting [6] is: BW25113, Replicate 2, read-out: MIC value of E. coli K-12 BW25113 carrying the pooled plasmids of the ASKA library.
Setting [7] is: BW25113, Replicate 3, read-out: MIC value of E. coli K-12 BW25113 carrying the empty plasmid of the ASKA library.
[8] abbreviates: BW25113, Replicate 3, read-out: MIC value of E. coli K-12 BW25113 carrying the pooled plasmids of the ASKA library.
[9] abbreviates: starting wild-type strain of the evolution experiment, broth dilution, MS medium, 5 × 10^5 cells/mL, 30 °C, 24 h, MIC = OD600 < 0.05.

As for `CN(C)[C@@H]1C(O)=C(C(N)=O)C(=O)[C@@]2(O)C(O)=C3C(=O)c4c(O)cccc4[C@@](C)(O)[C@H]3C[C@@H]12` [TET, Tetracycline], the MIC with E. coli K-12 BW25113 (setting [2]) stood at 1.2 µg/mL; in test [1] (setting [3]), 0.62 µg/mL; in test [1] (setting [4]) it was 1.29 µg/mL; in test [1] (setting [5]) it was 0.62 µg/mL; in test [1] (setting [6]) it was 1.07 µg/mL; in test [1] (setting [7]) it was 0.62 µg/mL. Also, the MIC in test [1] (setting [8]) turned out to be 1.07 µg/mL.

In the case of `CC[C@H]1OC(=O)[C@H](C)[C@@H](O[C@H]2C[C@@](C)(OC)[C@@H](O)[C@H](C)O2)[C@H](C)[C@@H](O[C@@H]2O[C@H](C)C[C@H](N(C)C)[C@H]2O)[C@](C)(O)C[C@@H](C)C(=O)[C@H](C)[C@@H](O)[C@]1(C)O` [ERY, Erythromycin], the MIC in test [1] (setting [3]) is 11 µg/mL; in test [1] (setting [4]), 18.6 µg/mL; in test [1] (setting [5]) it was 14.3 µg/mL; in test [1] (setting [6]) it was 24.1 µg/mL; in test [1] (setting [7]) it was 14.3 µg/mL; in test [1] (setting [8]), 24.1 µg/mL.

In the case of `O=C1CN(/N=C/c2ccc([N+](=O)[O-])o2)C(=O)N1` [NIT, Nitrofurantoin], the MIC stood at 35 µg/mL in the test on E. coli K-12 BW25113 (Escherichia coli, BW25113, 24 h); 6.53 µg/mL in test [1] (setting [3]); 14.7 µg/mL in test [1] (setting [4]); 6.53 µg/mL in test [1] (setting [5]); 14.7 µg/mL in test [1] (setting [6]); 6.53 µg/mL in test [1] (setting [7]). Further, the MIC in test [1] (setting [8]) turned out to be 6.53 µg/mL.

Consider `CCn1cc(C(=O)O)c(=O)c2ccc(C)nc21` [NAL, Nalidixic acid], for which the MIC in the test with E. coli K-12 BW25113 (setting [2]) amounted to 6.35 µg/mL; in test [1] (setting [3]), 0.37 µg/mL; in test [1] (setting [4]) it was 1.05 µg/mL; in test [1] (setting [5]), 0.37 µg/mL; in test [1] (setting [6]) it was 1.05 µg/mL; in test [1] (setting [7]), 0.37 µg/mL. Also, in test [1] (setting [8]), the MIC was determined as 1.05 µg/mL.

“GLRKRLRKFRNKIKEKLKKIGQKIQGFVPKLAPRTDY [CAP18, rabbit CAP18]”: in the test on E. coli K-12 BW25113 (setting [9]), the MIC worked out at 120 µg/mL. Further, the “MIC value of E. coli K-12 BW25113 carrying the empty plasmid of the ASKA library” value in test [1] (Replicate 1) was 24.11 µg/mL; in test [1] (Replicate 2) it was 20.09 µg/mL; in test [1] (Replicate 3), 24.11 µg/mL. Also, the “MIC value of E. coli K-12 BW25113 carrying the pooled plasmids of the ASKA library” value in test [1] (Replicate 1), in test [1] (Replicate 2) and in test [1] (Replicate 3) was 24.11 µg/mL throughout.

Take “RRRPRPPYLPRPRPPPFFPPRLPPRIPPGFPPRFPPRFP [PR39]”: in the test on E. coli K-12 BW25113 (setting [9]), the MIC was 5 µg/mL. Further, the “MIC value of E. coli K-12 BW25113 carrying the empty plasmid of the ASKA library” value in test [1] (Replicate 1), in test [1] (Replicate 2) and in test [1] (Replicate 3) was 5.79 µg/mL throughout. Further, the “MIC value of E. coli K-12 BW25113 carrying the pooled plasmids of the ASKA library” value in test [1] (Replicate 1), in test [1] (Replicate 2) and in test [1] (Replicate 3) was 5.79 µg/mL throughout.

Turning to FLGKVFKLASKVFKAVFGKV [R8], the MIC in the test on E. coli K-12 BW25113 (setting [9]) is 20 µg/mL. Moreover, the “MIC value of E. coli K-12 BW25113 carrying the empty plasmid of the ASKA library” value in test [1] (Replicate 1), in test [1] (Replicate 2) and in test [1] (Replicate 3) was 11.57 µg/mL throughout. Moreover, the “MIC value of E. coli K-12 BW25113 carrying the pooled plasmids of the ASKA library” value is 11.57 µg/mL in test [1] (Replicate 1), 11.57 µg/mL in test [1] (Replicate 2) and 9.46 µg/mL in test [1] (Replicate 3).

Consider `C[C@H]1c2cccc(O)c2C(=O)C2=C(O)[C@]3(O)C(=O)C(C(N)=O)=C(O)[C@@H](N(C)C)[C@@H]3[C@@H](O)[C@@H]21` [DOX, Doxycycline], for which the MIC in the test with E. coli K-12 BW25113 (setting [2]) is 1.5 µg/mL; in test [1] (setting [3]) it was 0.56 µg/mL; in test [1] (setting [4]), 1.59 µg/mL; in test [1] (setting [5]) it was 0.43 µg/mL; in test [1] (setting [6]), 1.59 µg/mL; in test [1] (setting [7]), 0.56 µg/mL. The MIC in test [1] (setting [8]) amounted to 1.59 µg/mL.

As to `CO[C@@]1(NC(=O)Cc2cccs2)C(=O)N2C(C(=O)O)=C(COC(N)=O)CS[C@@H]21` [FOX, Cefoxitin], the MIC amounted to 4.9 µg/mL with E. coli K-12 BW25113 (setting [2]); 6.07 µg/mL in test [1] (setting [3]); 69.2 µg/mL in test [1] (setting [4]); 6.07 µg/mL in test [1] (setting [5]); 69.2 µg/mL in test [1] (setting [6]); 6.07 µg/mL in test [1] (setting [7]). The MIC in test [1] (setting [8]) was found to be 69.2 µg/mL.
